Test results from PMC3638638, “Metabonomics Combined with UPLC-MS Chemical Profile for Discovery of Antidepressant Ingredients of a Traditional Chinese Medicines Formula, Chaihu-Shu-Gan-San” (Evidence-based Complementary and Alternative Medicine : eCAM, 2013).
Structures can show the parent of a compound that is named as a salt. Where two headings read alike, the source gives them in different places.

Tests used:
rat MAO-A = molecular target: T1, rat MAO-A (Rattus norvegicus, UniProt P21396); test: Monoamine oxidase A (MAO-A) activity assay, spectrophotometric enzymatic kit; type: biochemical
T1 sequence (P21396 1-526): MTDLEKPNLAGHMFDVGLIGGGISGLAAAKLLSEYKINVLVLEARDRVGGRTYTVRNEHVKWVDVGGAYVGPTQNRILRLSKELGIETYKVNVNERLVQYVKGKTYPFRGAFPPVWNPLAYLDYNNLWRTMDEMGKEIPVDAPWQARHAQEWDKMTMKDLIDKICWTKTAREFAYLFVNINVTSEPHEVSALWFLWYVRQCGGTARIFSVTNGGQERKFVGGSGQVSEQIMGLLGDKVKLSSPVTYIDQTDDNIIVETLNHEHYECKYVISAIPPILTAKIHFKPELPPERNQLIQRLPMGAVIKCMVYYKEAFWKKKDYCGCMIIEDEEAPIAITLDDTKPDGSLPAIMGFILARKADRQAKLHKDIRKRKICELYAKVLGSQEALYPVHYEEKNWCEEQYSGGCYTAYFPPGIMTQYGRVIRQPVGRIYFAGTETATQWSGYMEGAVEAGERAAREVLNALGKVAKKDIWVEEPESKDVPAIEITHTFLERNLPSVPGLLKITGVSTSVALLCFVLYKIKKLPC
Protocol: MAO was purified from the rat liver according to the Gómez method after minor modification. The liver tissue was rapidly removed into ice cold homogenized (1 : 10, w/v) in 50 mM KH2PO4 buffer, pH 7.2, containing […]. Following centrifugation at 1000 g for 10 min, the supernatant was centrifuged at 10,000 g for 30 min to obtain crude mitochondrial pellet.
The MAO-A activity was measured by spectrophotometrically (Mapada, UV-3100, China) using enzymatic kits according to the instructions (Nanjing Jiancheng Institute of Biotechnology). IC50 values were used to estimate the inhibition calculated in relation to a sample of the enzyme treated under the same conditions without inhibitor, versus inhibitor concentration.

[1] = set-up: method as in PMID 3435494, PMID 20515525; conditions: must be hydrolyzed by gut microflora enzymes to aglycone naringenin; cited from earlier work
CUMS treated rats = test: Ethological study of antidepressant effect on CUMS rat model (body weight, open-field test, sucrose consumption); type: in vivo; conditions: n=8
Protocol: 40 healthy, adult, male Wistar rats, weighing 200 ± 20 g each, were purchased from the Institute of Laboratory Animal Science, CAMS and PUMC (Beijing, China). The rats were housed individually in cages for one week to adapt to the environment under controlled conditions of 12 h light–12 h dark cycles (lights on from 6:00 a.m. to 6:00 p.m.), […], and temperature (20 ± 3°C) with commercial diet and water available ad libitum. All experimental procedures were approved by the Ethics Committee of the Institute of Medicinal Plant Development, CAMS & PUMC.
All rats except control group were subjected to a series of variable stimuli as previously described after minor modification.
The antidepressant effects of CSGS and QZ extracts were evaluated on a CUMS rat model, a well-validated animal model of depression (see supplementary material Table S1 available online at http://dx.doi.org/10.1155/2013/487158).

[2] = rat MAO-A as enzyme source (rat liver mitochondrial pellet)
[3] = rat MAO-A as enzyme source (rat liver mitochondrial pellet), read-out: IC50, inhibition against MAO-A activity

For `COc1ccc([C@@H]2CC(=O)c3c(O)cc(O[C@@H]4O[C@H](CO)[C@@H](O)[C@H](O)[C@H]4O[C@@H]4O[C@@H](C)[C@H](O)[C@@H](O)[C@H]4O)cc3O2)cc1O` [Neohesperidin], the “IC50, inhibition against MAO-A activity” value (rat MAO-A; [2]) was “relatively weak” and the IC50 (rat MAO-A; [3]) was 93.8 µM.

For `C[C@@H]1O[C@@H](O[C@H]2[C@H](Oc3cc(O)c4c(c3)O[C@H](c3ccc(O)cc3)CC4=O)O[C@H](CO)[C@@H](O)[C@@H]2O)[C@H](O)[C@H](O)[C@H]1O` [Naringin], the IC50 (rat MAO-A) is given as 5.82 µM and the “Absorption from the gastrointestinal tract in its original form” value [1] is given as “poorly absorbed”.

With `COc1ccc([C@@H]2CC(=O)c3c(O)cc(O[C@@H]4O[C@H](CO[C@@H]5O[C@@H](C)[C@H](O)[C@@H](O)[C@H]5O)[C@@H](O)[C@H](O)[C@H]4O)cc3O2)cc1O` [Hesperidin] the “IC50, inhibition against MAO-A activity” value (rat MAO-A; [2]) was “relatively weak” and the IC50 (rat MAO-A; [3]) was 26.7 µM.

In the case of `CNCC(O)c1ccc(O)cc1` (stereo not drawn) [Synephrine], the IC50 (rat MAO-A) is reported as 15.2 µM and the “IC50, inhibition against MAO-A activity” value (rat MAO-A; [2]) is reported as “relatively weak”.

For `CNCCC(Oc1ccc(C(F)(F)F)cc1)c1ccccc1` (stereo not drawn) [Positive control, Fluoxetine hydrochloride], the “Body weight, 0W” value (CUMS treated rats; 0W (baseline), mean) was 191.702 g, the “Sucrose consumption, 4W” value (CUMS treated rats; 4W of treatment) was 17.5 g and the “Open-field test (OFT), 0W” value (CUMS treated rats; horizontal movements, 0W (baseline), mean) was 81.7. For the same compound, the “Open-field test (OFT), 4W” value (CUMS treated rats; horizontal movements, 4W of treatment, mean) was 61.4.
